The results in this text go back to patent US8466176B2 (priority 2008, dated 2013).

This data set in a line: logP(HCOOH) reported with HPLC/MS.
Setting [1] is: method [b]: LC-MS, pH 2.7 with 0.1% formic acid in water and acetonitrile (0.1% formic acid), linear gradient 10% to 95% acetonitrile.
[2] abbreviates: method [b]: LC-MS at pH 2.7, 0.1% formic acid in water and acetonitrile, linear gradient 10% to 95% acetonitrile.
The mark [3] stands for this setting: method [b]: LC-MS at pH 2.7 with 0.1% formic acid in water and acetonitrile (0.1% formic acid), linear gradient 10% to 95% acetonitrile.
Setting [4] is: HCOOH (formic acid), logP(HCOOH), HPLC/MS.

Structures are written as SMILES.

The chromatographic logP is lipophilicity estimated from chromatographic retention. A lower chromatographic logP goes with lower lipophilicity.

Take `Cn1nnnc1C(=NOCc1cccc(C#CCCCCCl)n1)c1ccccc1` [Example 211]: the log p under setting [1] is 3.99^[b].
As to `CCCCC(=O)NCc1cccc(CON=C(c2ccccc2)c2nnnn2C)n1` [Example 57], the log p under setting [2] is 2.56^[b].
Consider `Cn1nnnc1C(=NOCc1csc(NCCC2CCCCC2)n1)c1ccccc1` [Example 161, N-(2-cyclohexylethyl)-4-[({[(1-methyl-1H-tetrazol-5-yl)(phenyl)methylene]amino}oxy)methyl]-1,3-thiazol-2-amine], for which the chromatographic logP (formic acid (HCOOH), logP(HCOOH), HPLC/MS) is 3.62; the chromatographic logP (reversed phase HPLC column, pH 2.7, log p, method [b]: LC-MS, pH 2.7 with 0.1% formic acid in water and acetonitrile (0.1% formic acid), linear gradient 10% to 95% acetonitrile) is 3.62.
`Cn1nnnc1C(=NOCc1cccc(C#CCCCCl)n1)c1ccccc1` [Example 212]: the log p under setting [1] is 3.71^[b].
The same measure, in the same setting: with `CCOc1ccc(C#Cc2cccc(CON=C(c3ccccc3)c3nnnn3C)n2)cc1` [Example 227] the figure was 4.41^[b].
As for `Cn1nnnc1C(=NOCc1cccc(NOCC2CCCCC2)n1)c1ccccc1` [Example 284], the log p under setting [3] was 4.44^[b].
For the molecule `CC(C)c1ccc(C#Cc2cccc(CON=C(c3ccccc3)c3nnnn3C)n2)cc1` [Example 229], the log p under setting [1] was 5.14^[b].
The same measure, in the same setting: with `Cn1nnnc1C(=NOCc1cccc(C#Cc2cccc(F)c2)n1)c1ccccc1` [Example 248] the figure was 4.16^[b]; with `Cn1nnnc1C(=NOCc1cccc(C#CCc2ccccc2)n1)c1ccccc1` [Example 238], 4.09^[b]; with `CCc1ccc(C#Cc2nc(CON=C(c3ccccc3)c3nnnn3C)ccc2OC)cc1` [Example 134], 4.56^[b].
With `Cn1nnnc1C(=NOCc1cccc(C#CCC2CCCC2)n1)c1ccccc1` [Example 236], the log p under setting [1] is 4.78^[b].
Consider `Cn1nnnc1C(=NOCc1cccc(C=NO)n1)c1ccccc1` [Example 177, N-({6-[(hydroxyimino)methyl]pyridin-2-yl}methoxy)-1-(1-methyl-1H-tetrazol-5-yl)-1-phenylmethanimine], for which the chromatographic logP amounted to 2.16 under setting [4]; 2.16 (reversed phase HPLC columns, pH 2.3, log p, method [a]: HPLC on reversed phase columns, pH 2.3 with 0.1% phosphoric acid and acetonitrile as eluent).
Regarding `Cn1nnnc1C(=NOCc1csc(C#CCC2CCCC2)n1)c1cccc(F)c1` [Example 153], the log p under setting [1] was 5.03^[b].
For `COC(=O)c1nc(Br)sc1C` [methyl 2-bromo-5-methyl-1,3-thiazole-4-carboxylate], for the setting “HPLC/MS”, the chromatographic logP turned out to be 1.84.
Consider `CCCCCCC#Cc1cccc(CON=C(c2ccccc2)c2nnnn2C)n1` [Example 235], for which, under setting [1], the log p was 5.11^[b].
Take `OCc1nc(Br)ccc1F` [(6-bromo-3-fluoropyridin-2-yl)methanol]: the chromatographic logP under setting [4] is 0.92.
With `Cc1nnnn1C(=NOCc1cccc(NC(=S)NC2CCCC2)n1)c1ccccc1` [Example 9], under setting [2], the log p was 3.53^[b].
Same read-out and setting: to `Cn1nnnc1C(=NOCc1nc(C#CCCCc2ccccc2)ccc1F)c1ccccc1` [Example 104] belongs 4.84^[b].
For `Cn1nnnc1C(=NOCc1cccc(F)n1)c1ccccc1` [Example 79], the log p under setting [2] is 2.77^[b].
Turning to `CCCCONc1cccc(CON=C(c2ccccc2)c2nnnn2C)n1` [Example 286], the log p under setting [3] is 3.39^[b].
`Cc1nnnn1C(=NOCc1cccc(NC(=S)NCc2ccc(Cl)c(Cl)c2)n1)c1ccccc1` [Example 4]: under setting [2], the log p was 4.09^[b].
`CC(C)(C)OC(=O)N(CCC1CCCCC1)c1cccc(CBr)n1` [tert-butyl [6-(bromomethyl)pyridin-2-yl](2-cyclohexylethyl)carbamate] showed a chromatographic logP under setting [4] of 6.79.
Regarding `Cn1nnnc1C(=NOCc1cccc(C(=O)NC(C)(C)C)n1)c1ccccc1` [Example 86], the log p under setting [2] was 3.37^[b].
With `CCCOC(C)(C)C#Cc1cccc(CON=C(c2ccccc2)c2nnnn2C)n1` [Example 241], the log p under setting [1] is 4.31^[b].
Turning to `Cc1sc(C#CCCc2ccccc2)nc1CON=C(c1ccccc1)c1nnnn1C` [Example 187], the log p under setting [1] is 4.65^[b].
